Results taken from PubChem BioAssay AID1845212 (Molecular Pharmacology Branch, DTP, NCI, 2023).

System: NCI-H719 tumor spheroids, viability
Experiment: Anticancer human tumor NCI-H719 cell line growth inhibition;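 further: spheroids exposed to compounds for seven days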;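 on viability, T/C: percent viability relative to DMSO vehicle control as 100%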
Conditions: spheroids with HUVEC and MSC; for IC50: curve of first compound; for viability, T/C: stronger effect = lower value
From the text: Multicellular complex tumor spheroid response to DNA repair inhibitors in combination with DNA-damaging drugs
This study explores the anticancer activities of DNA-damaging drugs and inhibitors of DNA damage repair, both as single agents and in combinations. Complex tumor spheroids comprised of malignant cells, endothelial cells and mesenchymal stem cells served as an in vitro model for human solid tumors. This model system incorporates physiologically relevant features and patient-derived or established malignant cell lines with clinically relevant genetic alterations from many tumor types. Twenty-six patient-derived or established malignant cell lines were evaluated representing sarcoma, melanoma, small cell lung cancer (SCLC), non-small cell lung cancer (NSCLC), as well as bladder, ovarian and pancreatic cancers. The concentration ranges selected for each drug and investigational agent were based upon clinically achievable concentrations if the clinical Cmax of the agent was known.
Compounds. The drugs and compounds olaparib (NSC753686), talazoparib (NSC767125), berzosertib (NSC777718), elimusertib (NSC800525), nedisertib (NSC802822), VX-984 (NSC792969), AZD-1390 (NSC803789), temozolomide (NSC362856), topotecan (NSC609699), trabectedin (NSC813783), staurosporine (NSC755774), and gemcitabine (NSC613327) were obtained from the National Cancer Institute (NCI) Developmental Therapeutics Program Chemical Repository. The FDA-approved anticancer drug set is available from the Developmental Therapeutics Program at https://dtp.cancer.gov/organization/dscb/obtaining/available_plates.htm. […] The stock solutions were prepared in dimethyl sulfoxide (DMSO, Sigma-Aldrich, St. Louis, MO, cat. D2650) at 400-fold the tested concentration and stored at -70 degrees C. Prior to their use, the stock solutions were diluted in fresh medium and the final DMSO concentration in the assay was 0.25% (v/v). All drugs and investigational agents were tested over a range starting from a high concentration at or near the clinical Cmax and decreasing in half-log increments. If the clinical Cmax for an agent had not been determined, the highest concentration tested was 10 microM.
Cell Lines. The patient-derived cancer cell (PDC) lines: 156681-154-R-J1-PDC, 283228-195-R-J1-PDC, 287954-098-R-J1-PDC, 292921-168-R-J2-PDC, 349418-098-R-PDC, 425362-245-T-J1-PDC, 556581-035-R-J1-PDC, and BL0293-F563-PDC were received from the NCI Patient-Derived Models Repository (PDMR, https://pdmr.cancer.gov). The established cell lines HS-SY-2 (RRID:CVCL_8719), MPNST, and SYO-1 (RRID:CVCL_7146) were obtained from the Sloan Kettering Institute. The alveolar soft parts sarcoma cell line ASPS-1 (RRID:CVCL_S738) was established at the NCI and grown from internal seed stocks. The following established cell lines were purchased from the American Type Culture Collection (ATCC, Manassas, VA): G-401 (ATCC, cat. CRL-1441, RRID:CVCL_0270), SW982 (ATCC, cat. HTB-93, RRID:CVCL_1734), VA-ES-BJ (ATCC, cat. CRL-2138, RRID:CVCL_1785), NCI-H719 (ATCC, cat. CRL-5837, RRID:CVCL_1582), NCI-H196 (ATCC, cat. CRL-5823, RRID:CVCL_1509), NCI-H841 (ATCC, cat. CRL-5845, RRID:CVCL_1595), NCI-H1618 (ATCC, cat. CRL-5879, RRID:CVCL_1480), NCI-H1876 (ATCC, cat. CRL-5902, RRID:CVCL_1503), DMS 114 (ATCC, cat. CRL-2066; RRID:CVCL_1174), NCI-H211 (ATCC, cat. CRL-5824; RRID:CVCL_1529), and SW 1271 (ATCC, cat. CRL-2177, RRID:CVCL_1716). The small cell lung cancer cell line COR-L88 was purchased from Sigma-Aldrich (cat. 92031917-1VL, RRID:CVCL_1141). The non-small cell lung cancer cell lines NCI-H226 (RRID:CVCL_1544) and NCI-H322M (RRID:CVCL_1557) were established at the NCI and grown from internal seed stocks. Pooled donor human umbilical vein endothelial cells (HUVEC, Lonza, cat. CC-2519) and human mesenchymal stem cells (hMSC, Lonza, cat. PT-2501) were purchased from Lonza (Walkersville, MD).
Cell Culture. All cells were maintained in an incubator at 37 degrees C and 5% CO2 with 95% humidity. […]

`Cn1ncnc1[C@H]1c2n[nH]c(=O)c3cc(F)cc(c23)N[C@@H]1c1ccc(F)cc1` + CC[C@@]1(O)C(=O)OCc2c1cc1n(c2=O)Cc2cc3c(CN(C)C)c(O)ccc3nc2-1 gave an IC50 (second compound 0.003 µM) of less than 9.49 nM, an IC50 (second compound 0.00949 µM) of less than 9.49 nM and an IC50 (second compound 0.03 µM) of less than 9.49 nM. For the same molecule, the IC50 (second compound 0.0949 µM) was less than 9.49 nM, the IC50 (second compound 0.3 µM) was less than 9.49 nM and the viability, T/C (second compound 0.003 µM, first compound 0.00949 µM) was 5.32%. The viability, T/C (second compound 0.003 µM, first compound 0.03 µM) was 5.79%, the viability, T/C (second compound 0.003 µM, first compound 0.0949 µM) was 5.99% and the viability, T/C (second compound 0.003 µM, first compound 0.3 µM) was 5.19%. For the same molecule, the viability, T/C (second compound 0.003 µM, first compound 0.949 µM) was 4.99%, the viability, T/C (second compound 0.003 µM, first compound 3 µM) was 5.85% and the viability, T/C (second compound 0.00949 µM, first compound 0.00949 µM) was 5.81%. It also gave a viability, T/C (second compound 0.00949 µM, first compound 0.03 µM) of 5.54%, a viability, T/C (second compound 0.00949 µM, first compound 0.0949 µM) of 5.47% and a viability, T/C (second compound 0.00949 µM, first compound 0.3 µM) of 5.57%. For the same molecule, the viability, T/C (second compound 0.00949 µM, first compound 0.949 µM) was 5.5%, the viability, T/C (second compound 0.00949 µM, first compound 3 µM) was 6.37% and the viability, T/C (second compound 0.03 µM, first compound 0.00949 µM) was 5.15%. The viability, T/C (second compound 0.03 µM, first compound 0.03 µM) was 5.23%, the viability, T/C (second compound 0.03 µM, first compound 0.0949 µM) was 4.9% and the viability, T/C (second compound 0.03 µM, first compound 0.3 µM) was 5.13%. For the same molecule, the viability, T/C (second compound 0.03 µM, first compound 0.949 µM) was 5.61%, the viability, T/C (second compound 0.03 µM, first compound 3 µM) was 6.6% and the viability, T/C (second compound 0.0949 µM, first compound 0.00949 µM) was 5.2%. For the same molecule, the viability, T/C (second compound 0.0949 µM, first compound 0.03 µM) was 5.29%, the viability, T/C (second compound 0.0949 µM, first compound 0.0949 µM) was 6.09% and the viability, T/C (second compound 0.0949 µM, first compound 0.3 µM) was 5.95%. The viability, T/C (second compound 0.0949 µM, first compound 0.949 µM) was 5.66%, the viability, T/C (second compound 0.0949 µM, first compound 3 µM) was 7.03% and the viability, T/C (second compound 0.3 µM, first compound 0.00949 µM) was 5.56%. The viability, T/C (second compound 0.3 µM, first compound 0.03 µM) was 5.67%, the viability, T/C (second compound 0.3 µM, first compound 0.0949 µM) was 5.84% and the viability, T/C (second compound 0.3 µM, first compound 0.3 µM) was 5.89%. It also gave a viability, T/C (second compound 0.3 µM, first compound 0.949 µM) of 6.04% and a viability, T/C (second compound 0.3 µM, first compound 3 µM) of 5.47%.
